{
  "source": "paper PMC3314994",
  "about": "“Inhibitors of human histone deacetylase with potent activity against the African trypanosome Trypanosoma brucei” (Bioorganic & Medicinal Chemistry Letters, 2012)",
  "key": {"rhHDAC 9": {"target": "rhHDAC 9 (Homo sapiens, UniProt Q9UKV0)", "sequence (Q9UKV0 whole entry, canonical isoform)": "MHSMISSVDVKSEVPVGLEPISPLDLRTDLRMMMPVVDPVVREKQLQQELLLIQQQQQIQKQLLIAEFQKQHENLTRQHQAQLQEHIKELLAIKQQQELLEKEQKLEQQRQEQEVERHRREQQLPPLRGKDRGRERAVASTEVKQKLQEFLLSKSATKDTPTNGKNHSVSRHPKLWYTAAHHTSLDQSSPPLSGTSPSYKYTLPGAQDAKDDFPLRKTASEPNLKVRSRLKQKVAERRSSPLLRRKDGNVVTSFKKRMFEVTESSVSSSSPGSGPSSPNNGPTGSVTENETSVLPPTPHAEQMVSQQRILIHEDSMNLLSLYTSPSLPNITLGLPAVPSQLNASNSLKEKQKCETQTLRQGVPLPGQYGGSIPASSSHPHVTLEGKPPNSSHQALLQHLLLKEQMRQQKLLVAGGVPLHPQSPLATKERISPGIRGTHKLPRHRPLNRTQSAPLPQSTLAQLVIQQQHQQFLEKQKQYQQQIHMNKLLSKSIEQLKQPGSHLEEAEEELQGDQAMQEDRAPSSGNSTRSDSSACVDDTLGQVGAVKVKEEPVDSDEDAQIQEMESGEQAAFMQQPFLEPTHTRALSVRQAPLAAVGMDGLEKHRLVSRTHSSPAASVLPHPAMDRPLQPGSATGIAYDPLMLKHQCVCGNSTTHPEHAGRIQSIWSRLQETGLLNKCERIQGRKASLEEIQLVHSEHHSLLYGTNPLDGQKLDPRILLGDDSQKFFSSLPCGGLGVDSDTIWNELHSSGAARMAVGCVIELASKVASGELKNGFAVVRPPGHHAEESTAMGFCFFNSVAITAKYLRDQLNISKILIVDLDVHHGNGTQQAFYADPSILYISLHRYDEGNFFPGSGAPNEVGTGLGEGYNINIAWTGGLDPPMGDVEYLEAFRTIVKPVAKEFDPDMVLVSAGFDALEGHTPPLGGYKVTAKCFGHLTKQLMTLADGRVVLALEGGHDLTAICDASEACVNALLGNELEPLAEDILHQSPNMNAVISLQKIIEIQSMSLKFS", "experiment": "Inhibition of recombinant human HDAC isoforms", "assay_type": "biochemical", "conditions": "mean ± SD, triplicate per plate, min two plates; read-out: ED50 rhHDAC 9", "from_the_text": "(§1) The compounds from the different structural subclasses were all active as HDAC inhibitors, measured in an assay of enzymes in HeLa cell lysates.[23,24] HeLa cells express multiple HDACs, including HDAC 1, 2, 3, 4, and 8.[25–27] […] To further characterise the compounds with respect to HDAC selectivity, we determined their inhibitory properties against recombinant expressed human HDACs (rhHDAC 1–4, 6–9).[28]"}, "rhHDAC 3": {"target": "rhHDAC 3 (Homo sapiens, UniProt O15379)", "sequence (O15379 whole entry, canonical isoform)": "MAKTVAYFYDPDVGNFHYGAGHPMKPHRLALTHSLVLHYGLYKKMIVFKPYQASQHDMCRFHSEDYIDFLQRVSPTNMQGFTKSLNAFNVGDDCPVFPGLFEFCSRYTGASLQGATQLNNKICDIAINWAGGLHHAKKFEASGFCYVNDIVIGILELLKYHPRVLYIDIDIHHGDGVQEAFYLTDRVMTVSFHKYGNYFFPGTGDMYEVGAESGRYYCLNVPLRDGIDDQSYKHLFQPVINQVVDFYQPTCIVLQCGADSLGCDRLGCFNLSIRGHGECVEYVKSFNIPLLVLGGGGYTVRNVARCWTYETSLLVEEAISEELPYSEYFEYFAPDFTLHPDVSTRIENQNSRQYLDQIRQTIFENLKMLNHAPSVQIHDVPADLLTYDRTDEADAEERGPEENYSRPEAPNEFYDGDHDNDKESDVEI", "sequence (Q9Y618 395-489 partner limits assumed)": "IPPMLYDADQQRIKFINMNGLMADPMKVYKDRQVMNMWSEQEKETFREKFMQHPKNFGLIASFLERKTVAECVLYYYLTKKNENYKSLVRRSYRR", "experiment": "Inhibition of recombinant human HDAC isoforms", "assay_type": "biochemical", "conditions": "mean ± SD, triplicate per plate, min two plates; read-out: ED50 rhHDAC 3", "from_the_text": "as §1"}, "rhHDAC 6": {"target": "T1, rhHDAC 6 (Homo sapiens, UniProt Q9UBN7)", "T1 sequence (Q9UBN7 1-1215)": "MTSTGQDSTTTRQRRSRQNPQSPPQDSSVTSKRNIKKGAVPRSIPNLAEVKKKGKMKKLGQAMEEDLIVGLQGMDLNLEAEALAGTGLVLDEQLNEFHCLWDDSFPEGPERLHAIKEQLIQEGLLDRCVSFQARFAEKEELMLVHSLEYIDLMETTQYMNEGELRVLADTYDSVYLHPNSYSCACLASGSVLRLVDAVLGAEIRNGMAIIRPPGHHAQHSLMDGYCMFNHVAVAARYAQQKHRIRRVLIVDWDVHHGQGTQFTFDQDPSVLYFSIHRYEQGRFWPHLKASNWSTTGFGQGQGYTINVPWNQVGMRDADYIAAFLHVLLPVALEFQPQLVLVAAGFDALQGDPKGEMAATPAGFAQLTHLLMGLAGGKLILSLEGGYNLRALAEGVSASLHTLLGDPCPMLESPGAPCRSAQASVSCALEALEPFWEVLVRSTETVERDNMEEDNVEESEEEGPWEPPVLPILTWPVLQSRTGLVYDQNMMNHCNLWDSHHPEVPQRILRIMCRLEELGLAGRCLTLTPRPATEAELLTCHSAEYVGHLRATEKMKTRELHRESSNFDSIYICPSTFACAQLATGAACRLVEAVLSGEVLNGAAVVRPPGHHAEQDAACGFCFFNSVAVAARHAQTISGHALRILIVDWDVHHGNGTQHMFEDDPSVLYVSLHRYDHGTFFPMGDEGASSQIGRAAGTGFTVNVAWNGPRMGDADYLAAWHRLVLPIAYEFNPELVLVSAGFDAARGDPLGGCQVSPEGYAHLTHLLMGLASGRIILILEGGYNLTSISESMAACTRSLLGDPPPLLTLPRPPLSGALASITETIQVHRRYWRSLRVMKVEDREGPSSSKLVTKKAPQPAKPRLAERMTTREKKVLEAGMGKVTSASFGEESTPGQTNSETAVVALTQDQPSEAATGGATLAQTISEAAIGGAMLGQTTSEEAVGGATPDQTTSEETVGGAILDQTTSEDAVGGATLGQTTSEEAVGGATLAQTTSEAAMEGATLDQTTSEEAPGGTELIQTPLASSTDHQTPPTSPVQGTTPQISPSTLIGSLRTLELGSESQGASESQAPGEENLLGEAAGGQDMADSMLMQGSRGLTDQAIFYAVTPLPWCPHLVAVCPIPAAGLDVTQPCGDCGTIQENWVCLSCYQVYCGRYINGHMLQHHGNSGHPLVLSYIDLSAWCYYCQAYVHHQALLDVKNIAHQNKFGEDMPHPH", "experiment": "Inhibition of recombinant human HDAC isoforms", "assay_type": "biochemical", "conditions": "mean ± SD, triplicate per plate, min two plates; read-out: ED50 rhHDAC 6", "from_the_text": "as §1"}, "rhHDAC 4": {"target": "rhHDAC 4 (Homo sapiens, UniProt P56524)", "sequence (P56524 whole entry, canonical isoform)": "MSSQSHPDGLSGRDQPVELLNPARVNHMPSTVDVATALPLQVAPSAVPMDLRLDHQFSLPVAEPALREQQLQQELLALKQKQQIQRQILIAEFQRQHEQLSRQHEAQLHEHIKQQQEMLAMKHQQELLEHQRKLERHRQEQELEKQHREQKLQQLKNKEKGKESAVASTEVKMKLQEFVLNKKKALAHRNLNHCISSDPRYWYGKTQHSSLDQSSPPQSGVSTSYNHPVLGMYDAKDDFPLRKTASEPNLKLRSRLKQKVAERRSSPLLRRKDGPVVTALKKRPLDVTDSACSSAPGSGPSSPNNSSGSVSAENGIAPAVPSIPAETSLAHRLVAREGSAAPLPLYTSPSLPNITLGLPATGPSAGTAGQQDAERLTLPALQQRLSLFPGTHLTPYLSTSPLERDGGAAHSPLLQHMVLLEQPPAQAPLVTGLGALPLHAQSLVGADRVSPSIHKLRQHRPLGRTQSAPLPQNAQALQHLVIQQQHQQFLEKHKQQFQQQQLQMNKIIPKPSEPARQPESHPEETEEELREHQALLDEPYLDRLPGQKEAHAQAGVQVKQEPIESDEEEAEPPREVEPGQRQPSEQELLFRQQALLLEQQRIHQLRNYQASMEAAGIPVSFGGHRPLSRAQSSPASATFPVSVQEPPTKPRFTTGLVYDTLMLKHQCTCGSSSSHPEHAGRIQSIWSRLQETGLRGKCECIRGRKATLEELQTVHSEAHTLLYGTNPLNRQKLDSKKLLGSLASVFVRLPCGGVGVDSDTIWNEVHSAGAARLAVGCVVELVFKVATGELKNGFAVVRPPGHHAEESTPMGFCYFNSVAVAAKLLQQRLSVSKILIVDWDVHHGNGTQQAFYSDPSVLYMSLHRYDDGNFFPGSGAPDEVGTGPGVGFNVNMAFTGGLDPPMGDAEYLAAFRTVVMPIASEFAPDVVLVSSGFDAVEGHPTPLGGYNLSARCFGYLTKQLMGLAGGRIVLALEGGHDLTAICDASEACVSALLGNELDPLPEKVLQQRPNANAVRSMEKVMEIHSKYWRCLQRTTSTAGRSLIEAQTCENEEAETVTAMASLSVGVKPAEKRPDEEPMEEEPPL", "experiment": "Inhibition of recombinant human HDAC isoforms", "assay_type": "biochemical", "conditions": "mean ± SD, triplicate per plate, min two plates; read-out: ED50 rhHDAC 4", "from_the_text": "as §1"}, "rhHDAC 7": {"target": "T2, rhHDAC 7 (Homo sapiens, UniProt Q8WUI4)", "T2 sequence (Q8WUI4 1-952)": "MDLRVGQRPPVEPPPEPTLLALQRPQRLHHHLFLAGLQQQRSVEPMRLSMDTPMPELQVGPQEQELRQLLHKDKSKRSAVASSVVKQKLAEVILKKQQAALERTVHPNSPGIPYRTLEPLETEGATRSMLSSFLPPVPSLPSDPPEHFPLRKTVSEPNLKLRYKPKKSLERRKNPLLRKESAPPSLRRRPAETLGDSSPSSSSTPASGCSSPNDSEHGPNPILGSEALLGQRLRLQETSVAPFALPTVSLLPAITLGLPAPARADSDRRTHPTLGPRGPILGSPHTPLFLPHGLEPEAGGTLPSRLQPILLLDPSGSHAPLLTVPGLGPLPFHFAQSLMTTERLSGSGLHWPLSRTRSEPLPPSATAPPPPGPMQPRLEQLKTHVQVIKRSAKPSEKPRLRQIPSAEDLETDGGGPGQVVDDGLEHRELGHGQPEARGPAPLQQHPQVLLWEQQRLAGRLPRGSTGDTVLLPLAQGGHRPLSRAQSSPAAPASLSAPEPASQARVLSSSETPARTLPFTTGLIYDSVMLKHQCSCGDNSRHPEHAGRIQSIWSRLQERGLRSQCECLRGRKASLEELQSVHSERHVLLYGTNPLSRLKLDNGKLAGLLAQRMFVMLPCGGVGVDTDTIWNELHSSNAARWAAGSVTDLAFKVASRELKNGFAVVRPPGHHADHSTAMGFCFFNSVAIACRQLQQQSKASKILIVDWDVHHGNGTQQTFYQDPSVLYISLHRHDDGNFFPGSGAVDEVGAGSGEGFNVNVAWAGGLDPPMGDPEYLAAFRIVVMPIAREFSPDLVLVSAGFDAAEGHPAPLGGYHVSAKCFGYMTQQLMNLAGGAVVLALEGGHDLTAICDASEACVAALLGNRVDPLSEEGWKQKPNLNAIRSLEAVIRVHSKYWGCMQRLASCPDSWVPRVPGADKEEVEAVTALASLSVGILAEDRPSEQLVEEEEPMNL", "experiment": "Inhibition of recombinant human HDAC isoforms", "assay_type": "biochemical", "conditions": "mean ± SD, triplicate per plate, min two plates; read-out: ED50 rhHDAC 7", "from_the_text": "as §1"}, "rhHDAC 1": {"target": "rhHDAC 1 (Homo sapiens, UniProt Q13547)", "sequence (Q13547 whole entry, canonical isoform)": "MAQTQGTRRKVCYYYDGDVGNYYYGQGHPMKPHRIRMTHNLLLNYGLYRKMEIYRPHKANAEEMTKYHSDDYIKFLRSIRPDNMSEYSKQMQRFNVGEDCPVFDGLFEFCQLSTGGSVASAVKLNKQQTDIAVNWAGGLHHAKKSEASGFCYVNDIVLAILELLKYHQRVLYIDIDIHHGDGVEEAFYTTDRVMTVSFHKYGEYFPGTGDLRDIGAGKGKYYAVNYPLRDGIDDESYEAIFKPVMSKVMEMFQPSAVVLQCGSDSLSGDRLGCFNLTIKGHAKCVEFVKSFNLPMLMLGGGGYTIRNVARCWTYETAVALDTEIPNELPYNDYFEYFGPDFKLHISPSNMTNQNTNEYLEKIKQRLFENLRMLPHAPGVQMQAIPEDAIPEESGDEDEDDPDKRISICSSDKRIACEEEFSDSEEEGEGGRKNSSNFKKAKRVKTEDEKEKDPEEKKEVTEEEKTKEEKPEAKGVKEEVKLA", "experiment": "Inhibition of recombinant human HDAC isoforms", "assay_type": "biochemical", "conditions": "mean ± SD, triplicate per plate, min two plates; read-out: ED50 rhHDAC 1", "from_the_text": "as §1"}, "rhHDAC 2": {"target": "rhHDAC 2 (Homo sapiens, UniProt Q92769)", "sequence (Q92769 whole entry, canonical isoform)": "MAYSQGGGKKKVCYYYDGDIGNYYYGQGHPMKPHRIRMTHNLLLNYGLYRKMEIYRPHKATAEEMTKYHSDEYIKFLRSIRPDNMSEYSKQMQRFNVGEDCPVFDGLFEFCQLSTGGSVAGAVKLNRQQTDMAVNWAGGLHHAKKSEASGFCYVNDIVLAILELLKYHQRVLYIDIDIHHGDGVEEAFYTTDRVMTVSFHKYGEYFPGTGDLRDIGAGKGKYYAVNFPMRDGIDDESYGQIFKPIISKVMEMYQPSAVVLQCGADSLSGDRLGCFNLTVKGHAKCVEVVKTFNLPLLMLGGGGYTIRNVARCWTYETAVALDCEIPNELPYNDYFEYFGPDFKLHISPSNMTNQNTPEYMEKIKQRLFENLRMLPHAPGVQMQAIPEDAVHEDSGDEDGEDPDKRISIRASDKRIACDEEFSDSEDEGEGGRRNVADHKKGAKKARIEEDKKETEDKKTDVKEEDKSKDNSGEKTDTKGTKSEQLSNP", "experiment": "Inhibition of recombinant human HDAC isoforms", "assay_type": "biochemical", "conditions": "mean ± SD, triplicate per plate, min two plates; read-out: ED50 rhHDAC 2", "from_the_text": "as §1"}, "rhHDAC 8": {"target": "T3, rhHDAC 8 (Homo sapiens, UniProt Q9BY41)", "T3 sequence (Q9BY41 1-377)": "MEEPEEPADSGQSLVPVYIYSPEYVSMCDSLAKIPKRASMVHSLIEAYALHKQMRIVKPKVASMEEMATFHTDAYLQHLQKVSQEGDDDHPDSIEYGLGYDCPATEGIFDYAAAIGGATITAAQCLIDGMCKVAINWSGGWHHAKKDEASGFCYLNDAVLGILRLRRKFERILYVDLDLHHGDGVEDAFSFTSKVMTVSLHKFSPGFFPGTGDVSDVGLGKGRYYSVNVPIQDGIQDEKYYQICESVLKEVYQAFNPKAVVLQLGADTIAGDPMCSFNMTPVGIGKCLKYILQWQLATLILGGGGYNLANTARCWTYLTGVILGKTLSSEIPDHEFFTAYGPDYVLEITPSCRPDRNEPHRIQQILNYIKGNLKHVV", "experiment": "Inhibition of recombinant human HDAC isoforms", "assay_type": "biochemical", "conditions": "mean ± SD, triplicate per plate, min two plates; read-out: ED50 rhHDAC 8", "from_the_text": "as §1"}, "Trypanosoma brucei (BSF) [1]": {"tested_on": "Trypanosoma brucei (BSF)", "experiment": "Growth inhibition of cultured bloodstream form T. brucei", "assay_type": "cell-based, Trypanosoma brucei (strain 427)", "conditions": "Trypanosoma brucei, cultured bloodstream form, strain 427, triplicate", "method": "Treatment of parasites with micromolar levels of these inhibitors could result in cell death within 4 h (Fig. 1).\n[30] Growth inhibitory properties against cultured bloodstream form T. brucei were determined as described previously.[29] Experiments were performed in triplicate and data are presented as ±SD."}, "HDAC (FDL_HELA)": {"tested_on": "HDAC (FDL_HELA)", "experiment": "Histone deacetylase activity in HeLa cell lysates (fluorescent assay kit)", "assay_type": "biochemical, Human", "conditions": "lysed HeLa cells; read-out: HDAC (FDL_HELA) IC50 ± SD", "method": "as §1\n[24] Histone deacetylase activity was determined in lysed Human cervix epithelial cancer HeLa cells. To determine the IC50 of test compound a commercially available fluorescent assay kit was used employing an acetylated enzyme substrate.[23]"}, "Trypanosoma brucei (BSF) [2]": {"tested_on": "Trypanosoma brucei (BSF)", "set-up": "method as in PMID 14726511", "conditions": "cited from earlier work"}, "DAC3": {"tested_on": "DAC3", "set-up": "method as in PMID 20624217", "conditions": "cited from earlier work"}, "DAC1": {"tested_on": "DAC1", "set-up": "method as in PMID 20624217", "conditions": "cited from earlier work"}},
  "data": [
    {"smiles": "O=C(/C=C/c1cccc(S(=O)(=O)Nc2cccc(F)c2)c1)NO", "note": "[Compound 15]", "values": [
      {"measurement": "IC50", "setting": "rhHDAC 9", "value": "109 ± 56", "unit": "nM"},
      {"measurement": "IC50", "setting": "rhHDAC 3", "value": "89 ± 32", "unit": "nM"},
      {"measurement": "IC50", "setting": "rhHDAC 6", "value": "35 ± 16", "unit": "nM"},
      {"measurement": "IC50", "setting": "rhHDAC 4", "value": "65 ± 20", "unit": "nM"},
      {"measurement": "IC50", "setting": "rhHDAC 7", "value": "216 ± 133", "unit": "nM"},
      {"measurement": "IC50", "setting": "rhHDAC 1", "value": "44 ± 0.1", "unit": "nM"},
      {"measurement": "IC50", "setting": "rhHDAC 2", "value": "221 ± 141", "unit": "nM"},
      {"measurement": "IC50", "setting": "rhHDAC 8", "value": "211 ± 42", "unit": "nM"},
      {"measurement": "IC50", "setting": "Trypanosoma brucei (BSF) [1]; read-out: Trypanosoma brucei (BSF) IC50 ± SD", "value": "343 ± 17", "unit": "nM"},
      {"measurement": "IC90", "setting": "Trypanosoma brucei (BSF) [1]; read-out: Trypanosoma brucei (BSF) IC90 ± SD", "value": "710 ± 17", "unit": "nM"},
      {"measurement": "IC50", "setting": "HDAC (FDL_HELA)", "value": "20 ± 4", "unit": "nM"}
    ]},
    {"smiles": "CC(/C=C/C(=O)NO)=C\\[C@@H](C)C(=O)c1ccc(N(C)C)cc1", "note": "[Trichostatin A]", "values": [
      {"measurement": "growth of bloodstream form T. brucei", "setting": "Trypanosoma brucei (BSF) [2]", "value": "suppresses growth"},
      {"measurement": "inhibition of DAC3 activity", "setting": "DAC3", "value": "inhibitor"},
      {"measurement": "inhibition of DAC1 activity", "setting": "DAC1", "value": "inhibitor"}
    ]}
  ]
}
